The text below walks through data of patent publication US20240368135A1 (VERTEX PHARMACEUTICALS INCORPORATED, priority 2021, published 2024).

Bounds are passed on as bounds.

Sequence of human NaV 1.8 (Q9Y5Y9 126-399 limits assumed): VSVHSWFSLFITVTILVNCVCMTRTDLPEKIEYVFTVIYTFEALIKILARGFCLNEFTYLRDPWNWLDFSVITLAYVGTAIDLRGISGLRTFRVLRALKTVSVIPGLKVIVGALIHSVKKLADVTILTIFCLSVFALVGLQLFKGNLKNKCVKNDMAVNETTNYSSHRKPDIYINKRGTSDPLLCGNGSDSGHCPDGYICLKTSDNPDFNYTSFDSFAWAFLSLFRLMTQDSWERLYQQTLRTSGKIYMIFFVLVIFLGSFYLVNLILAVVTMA
Sequence of human NaV 1.8 (Q9Y5Y9 660-890 limits assumed): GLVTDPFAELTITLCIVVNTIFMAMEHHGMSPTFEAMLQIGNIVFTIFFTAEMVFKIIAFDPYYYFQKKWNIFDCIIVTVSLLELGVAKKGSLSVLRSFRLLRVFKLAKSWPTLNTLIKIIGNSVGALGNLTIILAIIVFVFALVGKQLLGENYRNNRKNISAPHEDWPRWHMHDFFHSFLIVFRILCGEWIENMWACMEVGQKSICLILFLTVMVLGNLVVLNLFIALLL
Sequence of human NaV 1.8 (Q9Y5Y9 1148-1722 limits assumed): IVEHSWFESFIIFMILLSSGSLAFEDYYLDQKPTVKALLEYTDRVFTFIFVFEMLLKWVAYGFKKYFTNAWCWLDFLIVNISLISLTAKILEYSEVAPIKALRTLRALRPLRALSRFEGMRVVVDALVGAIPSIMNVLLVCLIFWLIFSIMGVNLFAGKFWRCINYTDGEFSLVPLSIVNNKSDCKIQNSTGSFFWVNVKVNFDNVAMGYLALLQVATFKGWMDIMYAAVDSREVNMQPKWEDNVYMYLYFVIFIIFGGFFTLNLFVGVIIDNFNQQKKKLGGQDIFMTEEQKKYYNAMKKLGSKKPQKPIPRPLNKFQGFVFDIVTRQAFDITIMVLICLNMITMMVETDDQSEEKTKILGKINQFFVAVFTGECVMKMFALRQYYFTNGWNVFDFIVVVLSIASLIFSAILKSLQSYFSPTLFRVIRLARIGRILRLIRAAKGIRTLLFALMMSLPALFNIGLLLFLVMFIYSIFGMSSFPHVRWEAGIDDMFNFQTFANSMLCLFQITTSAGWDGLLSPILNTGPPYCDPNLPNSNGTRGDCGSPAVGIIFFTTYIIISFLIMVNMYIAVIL

The first experiment deals with human NaV 1.8 (Homo sapiens, UniProt Q9Y5Y9). Nature of the experiment: E-VIPR assay detecting and measuring NaV inhibition properties. It counts as cell-based. To be noted: HEK cells expressing truncated human NaV 1.8; in the presence of human serum (compound numbers followed by *); read-out: IC50 in the E-VIPR Assay, performed in the presence of human serum. In outline:
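Membrane potential was followed by coumarin/oxonol FRET during electrical field stimulation of matrigel-seeded HEK cells carrying truncated human NaV1.8 plus KIR2.1. Dosing used 11 points, 3-fold steps, top 300 nM final, 0.625% DMSO, with or without 25% human serum.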
Turning to `C[C@@H]1[C@H](c2ccc(F)c(F)c2OC(F)F)[C@@H](C(=O)Nc2ccnc(C(C)(C)O)c2)O[C@]1(C)C(F)(F)F` (single isomer, unassigned) [Compound 83], the IC50 (commonly the midpoint of a concentration-inhibition curve) was at least 1000 nM.

The same experiment, now with this note: HEK cells expressing truncated human NaV 1.8; no human serum; read-out: IC50 in the E-VIPR Assay.
`COc1c([C@H]2[C@H](C(=O)Nc3ccc(-c4nnc(C)o4)nc3)O[C@@](C)(C(F)(F)F)[C@H]2C)ccc(F)c1F` [Compound 398, (2R,3S,4S,5R)-3-(3,4-difluoro-2-methoxyphenyl)-4,5-dimethyl-N-(6-(5-methyl-1,3,4-oxadiazol-2-yl)pyridin-3-yl)-5-(trifluoromethyl)-tetrahydrofuran-2-carboxamide]: the IC50 lay within 10 to 100 nM.

As to `Cc1nn(C(F)F)cc1NC(=O)[C@@H]1O[C@@](C)(C(F)(F)F)[C@@H](C)[C@H]1c1ccc(F)c(F)c1CN1CCN(C)CC1` [Compound 674, (2R,3S,4S,5R)-3-(3,4-difluoro-2-((4-methylpiperazin-1-yl)methyl)phenyl)-N-(1-(difluoromethyl)-3-methyl-1H-pyrazol-4-yl)-4,5-dimethyl-5-(trifluoromethyl)tetrahydrofuran-2-carboxamide], the IC50 lay in the range of 100 to 1000 nM.

Consider `COc1nc(C(F)F)ccc1[C@H]1[C@H](C(=O)Nc2ccc(C(N)=O)nc2)O[C@@](C)(C(F)(F)F)[C@H]1C` (stereo in doubt) [Compound 734, rel-5-((2R,3S,4S,5R)-3-(6-(difluoromethyl)-2-methoxypyridin-3-yl)-4,5-dimethyl-5-(trifluoromethyl)tetrahydrofuran-2-carboxamido)picolinamide], for which the IC50 lay in the range of 100 to 1000 nM.

Regarding `COCCOc1c([C@H]2[C@H](C(=O)Nc3cnn(CC(C)(C)O)c3)O[C@@](C)(C(F)(F)F)[C@H]2C)ccc(F)c1F` [Compound 583, (2R,3S,4S,5R)-3-(3,4-difluoro-2-(2-methoxyethoxy)phenyl)-N-(1-(2-hydroxy-2-methylpropyl)-1H-pyrazol-4-yl)-4,5-dimethyl-5-(trifluoromethyl)tetrahydrofuran-2-carboxamide], the IC50 fell in the range of 100 to 1000 nM.

Consider `CNC(=O)c1ccc(NC(=O)[C@H]2O[C@](C)(C(F)(F)F)[C@H](C)[C@@H]2c2ccc(F)c(C(F)F)c2OC)cn1` (stereo in doubt) [Compound 171, rel-5-((2S,3R,4R,5S)-3-(3-(difluoromethyl)-4-fluoro-2-methoxyphenyl)-4,5-dimethyl-5-(trifluoromethyl)tetrahydrofuran-2-carboxamido)-N-methylpicolinamide], for which the IC50 is 10 to 100 nM.

Regarding `C[C@H]1[C@@H](c2ccc(F)c(F)c2OC(F)F)[C@H](C(=O)Nc2ccc(C(N)=O)cc2)O[C@@]1(C)C(F)(F)F` (stereo in doubt) [Compound 74, rel-(2R,3S,4S,5R)-N-(4-carbamoylphenyl)-3-(2-(difluoromethoxy)-3,4-difluorophenyl)-4,5-dimethyl-5-(trifluoromethyl)tetrahydrofuran-2-carboxamide], the IC50 is below 10 nM.

On to `COc1c([C@H]2[C@H](C(=O)Nc3ccnc(OC4CCN(C)C4=O)c3)O[C@@](C)(C(F)(F)F)[C@H]2C)ccc(F)c1F` (single isomer, unassigned) [Compound 197, rel-(2R*,3S*,4S*,5R*)-3-(3,4-difluoro-2-methoxyphenyl)-4,5-dimethyl-N-(2-((1-methyl-2-oxopyrrolidin-3-yl)oxy)pyridin-4-yl)-5-(trifluoromethyl)tetrahydrofuran-2-carboxamide], for which the IC50 is below 10 nM.

As for `COCC(C)(N)c1cc(NC(=O)[C@@H]2O[C@@](C)(C(F)(F)F)[C@@H](C)[C@H]2c2ccc(F)c(F)c2OC)ccn1` (single isomer, unassigned) [Compound 352, rel-(2R*,3S*,4S*,5R*)-N-(2-(2-amino-1-methoxypropan-2-yl)pyridin-4-yl)-3-(3,4-difluoro-2-methoxyphenyl)-4,5-dimethyl-5-(trifluoromethyl)-tetrahydrofuran-2-carboxamide], the IC50 is below 10 nM.

On to `COc1c(C2C(C(=O)Nc3ccc(P(C)(C)=O)cc3)OC(C)(C(F)(F)F)C2C)ccc(F)c1F` (single isomer, unassigned) [Compound 39, 3-(3,4-difluoro-2-methoxy-phenyl)-N-(4-dimethylphosphorylphenyl)-4,5-dimethyl-5-(trifluoromethyl)tetrahydrofuran-2-carboxamide], for which the IC50 fell in the range of 100 to 1000 nM.

Take `COC[C@@H](O)Cn1cc(NC(=O)[C@@H]2O[C@@](C)(C(F)(F)F)[C@@H](C)[C@H]2c2ccc(F)c(F)c2OC)c(C)n1` [Compound 245, (2R,3S,4S,5R)-3-(3,4-difluoro-2-methoxyphenyl)-N-(1-((S)-2-hydroxy-3-methoxypropyl)-3-methyl-1H-pyrazol-4-yl)-4,5-dimethyl-5-(trifluoromethyl)tetrahydrofuran-2-carboxamide]: the IC50 fell in the range of 10 to 100 nM.

`COc1c([C@H]2[C@H](C(=O)Nc3ccc(-n4ccc(C)n4)nc3)O[C@@](C)(C(F)(F)F)[C@H]2C)ccc(F)c1F` [Compound 395, (2R,3S,4S,5R)-3-(3,4-difluoro-2-methoxyphenyl)-4,5-dimethyl-N-(6-(3-methyl-1H-pyrazol-1-yl)pyridin-3-yl)-5-(trifluoromethyl)-tetrahydrofuran-2-carboxamide]: the IC50 lay within 10 to 100 nM.

For the molecule `COc1c([C@H]2[C@H](C(=O)Nc3cc(C(O)CF)ncc3F)O[C@@](C)(C(F)(F)F)[C@H]2C)ccc(F)c1F` (single isomer, unassigned) [Compound 24], the IC50 is below 10 nM.
